How the values were obtained:
[1] = Incidence of hyperglycemia and diabetes-related adverse events in placebo-controlled trials; type: in vivo, human
Source text: Hyperglycemia, in some cases extreme and associated with ketoacidosis or hyperosmolar coma or death, has been reported in patients treated with atypical antipsychotics. The incidence of hyperglycemia and diabetes-related adverse events (such as hyperglycemia, elevated blood glucose, impaired glucose tolerance, diabetes mellitus, inadequately controlled diabetes) in patients treated with bifeprunox was 0.5% (5/1050) and in placebo-treated patients was 0.6% (3/469) in six-week placebo-controlled trials. […] Assessment of the relationship between atypical antipsychotic use and glucose abnormalities is complicated by the possibility of an increased background risk of diabetes mellitus in patients with schizophrenia and the increasing incidence of diabetes mellitus in the general population. Given these confounders, the relationship between atypical antipsychotic use and hyperglycemia-related adverse events is not completely understood. […] Because bifeprunox was not marketed at the time these studies were performed, it is not known if bifeprunox is associated with this increased risk. Precise risk estimates for hyperglycemia-related adverse events in patients treated with atypical antipsychotics are not available.

[2] = Clinical laboratory assessments (lipid shifts, thyroid function), Clinical Study Two; type: in vivo, human
Method: Pharmacokinetic (PK) data of bifeprunox in schizophrenic subjects were also assessed and are presented in a separate report (combined with data from study S1543003).
Subjects who completed this study had the option to continue in the long-term. […] Risperidone-treated subjects were titrated from 2 mg to 6 mg daily over a three-day period and were subsequently maintained at 6 mg/day for the remainder of the treatment period. […] Blood samples were also obtained at Screening/Baseline, Week 3, and Week 6 for clinical laboratory assessments.

[3] = Pooled metabolic analysis, 6-month study: body weight; settings: for Weight, Mean (SD) change from baseline: endpoint
Source text: OBJECTIVE: To examine the metabolic effects of bifeprunox in patients with acute and stable schizophrenia.
METHODS: Metabolic data was compiled from one 6-month and four 6-week studies (i.e., a treatment period) of bifeprunox in patients with stable and acute schizophrenia, respectively. In the 6-month study, patients received bifeprunox (n=331) or placebo (PBO) (n=166). […] Metabolic evaluations included body weight, body mass index (BMI), plasma glucose and lipid profiles. Fasting glucose and lipid values were assessed in one 6-week study and in the 6-month study. Triglyceride:HDL ratio (TG:HDL) was calculated as a marker of insulin resistance. No statistical analyses were performed; only descriptive statistics are presented.

[4] = tested on: patients with chronic schizophrenia; assay: Movement rating scales SAS, BAS, AIMS, Clinical Study Four; type: in vivo, human; settings: for AIMS total score at Month 6: APTS; for proportion of patients normal with respect to SAS status: Month 6
Method: METHODOLOGY: This study was a multinational, multicenter, randomized, double-blind, parallel-group, placebo-controlled, fixed-dose study. The study consisted of a 3- to 6-day antipsychotic-free run-in period, after which patients were randomised to 6 months of double-blind treatment with fixed doses of bifeprunox (20 mg/day (BX20) or 30 mg/day (BX30)) or placebo (PBO). Patients allocated to the BX groups were up-titrated from 0.25 mg/day over 7 days (BX20) or 8 days (BX30), and then continued on these doses for the remainder of the study. […] At predetermined time points, blood samples were obtained for drug concentration analysis of BX and its major metabolites (3′- and 4′-sulfate conjugates of BX), and pharmaco-economic assessments were performed.
The SAS is used to measure Parkinsonian-type symptoms in patients exposed to antipsychotics. The scale consists of 10 items, each rated on a 5-point scale ranging from 0 (complete absence of the condition) to 4 (presence of the condition in extreme form). The SAS total score is defined as the sum of all item scores, and the range is 0 to 40. A SAS total score of up to 3 is considered normal.
The BAS is used to rate observable, restless movements of drug-induced akathisia as well as the subjective awareness of restlessness and any distress associated with the akathisia. The scale consists of 3 items that is rated from 0 (no evidence of akathisia) to 3 (severe akathisia). The BAS total score is defined as the sum of the these three BAS item scores and ranges from is 0 to 9. In addition, a global clinical assessment of akathisia is rated from 0 (no evidence of akathisia) to 5 (severe akathisia).
The AIMS, designed to record the occurrence of dyskinetic movements, consists of 12 items. Items 1 to 7 measure specific involuntary movements on a scale from 0 (none) to 4 (severe). Items 8 to 10 measure global assessment of abnormal movement on a scale from 0 (no awareness) to 4 (aware, severe distress). Items 11 and 12 are questions regarding the dental condition of the patient, with yes/no answers. The total score is calculated by summing AIMS items 1 through 10 and ranges from 0 to 40; the non-global total score is calculated by summing items 1 through 7.

[5] = baseline BMI 18.5-25 kg/m^2, BX total doses
[6] = baseline BMI <18.5 kg/m^2, BX total doses
[7] = baseline BMI >25-30 kg/m^2, BX total doses
[8] = baseline BMI >30 kg/m^2, BX total doses
[9] = baseline BMI All, BX total doses

O=c1[nH]c2cccc(N3CCN(Cc4cccc(-c5ccccc5)c4)CC3)c2o1 [Bifeprunox, 7-[4-([1,1′-biphenyl]-3-ylmethyl)-1-piperazinyl]-2(3H)-benzoxazolone]
hyperglycemia or diabetes-related adverse events ([1]; 26-week placebo-controlled trial): no patients reported
incidence of hyperglycemia and diabetes-related adverse events ([1]; six-week placebo-controlled trials): 0.5%
incidence of N to H shifts in tri-iodine thyronine ([2]; Bifeprunox 30 mg): 6%
incidence of N to L shifts in TSH ([2]; Bifeprunox 30 mg): 4%
incidence of N to H shifts in tri-iodine thyronine ([2]; Bifeprunox 40 mg): 5%
incidence of N to L shifts in TSH ([2]; Bifeprunox 40 mg): 5%
shifts in lipids compared with the placebo and risperidone groups ([2]; bifeprunox 30, 40 mg, 6 weeks): lower incidence of N to H shifts in triglycerides, VLDL, and LDL
≧7% weight decrease, (%) [3, 5]: 8.7%
≧7% weight increase, (%) [3, 5]: 3.3%
≧7% weight decrease, (%) [3, 6]: 23.1%
≧7% weight decrease, (%) [3, 7]: 4.7%
≧7% weight increase, (%) [3, 7]: 2.4%
≧7% weight decrease, (%) [3, 8]: 12.8%
≧7% weight decrease, (%) [3, 9]: 8.8%
≧7% weight increase, (%) [3, 9]: 2.5%
Weight, Mean (SD) change from baseline [3, 5]: −0.9 (2.9) kg
Weight, Mean (SD) change from baseline [3, 6]: −0.8 (2.6) kg
Weight, Mean (SD) change from baseline [3, 7]: −0.9 (2.7) kg
Weight, Mean (SD) change from baseline [3, 8]: −3.0 (5.6) kg
Weight, Mean (SD) change from baseline [3, 9]: −1.1 (3.3) kg
mean weight change ([3]; final evaluation (LOCF)): -1.1 kg
mean change in weight ([3]; patients with nausea or vomiting): -1.4 kg
mean change in weight ([3]; patients without nausea or vomiting): -1.0 kg
AIMS score, mean (SD) ([4]; BX20, Baseline, LOCF): 1.04 (2.76)
BAS score, mean (SD) ([4]; BX20, Baseline, LOCF): 0.44 (1.10)
SAS score, mean (SD) ([4]; BX20, Baseline, LOCF): 2.27 (3.72)
AIMS score, mean (SD) ([4]; BX20, Baseline, OC): 1.04 (2.76)
BAS score, mean (SD) ([4]; BX20, Baseline, OC): 0.46 (1.10)
SAS score, mean (SD) ([4]; BX20, Baseline, OC): 2.27 (3.72)
AIMS score, mean (SD) ([4]; BX20, Month 6, LOCF): 1.55 (3.92)
BAS score, mean (SD) ([4]; BX20, Month 6, LOCF): 0.49 (1.25)
SAS score, mean (SD) ([4]; BX20, Month 6, LOCF): 1.22 (2.47)
AIMS score, mean (SD) ([4]; BX20, Month 6, OC): 1.08 (2.13)
BAS score, mean (SD) ([4]; BX20, Month 6, OC): 0.17 (0.42)
SAS score, mean (SD) ([4]; BX20, Month 6, OC): 0.97 (2.20)
AIMS score, mean (SD) ([4]; BX20, Week 6, LOCF): 1.59 (3.96)
BAS score, mean (SD) ([4]; BX20, Week 6, LOCF): 0.49 (1.21)
SAS score, mean (SD) ([4]; BX20, Week 6, LOCF): 1.43 (2.77)
AIMS score, mean (SD) ([4]; BX20, Week 6, OC): 1.16 (2.55)
BAS score, mean (SD) ([4]; BX20, Week 6, OC): 0.36 (0.99)
SAS score, mean (SD) ([4]; BX20, Week 6, OC): 1.31 (2.69)
AIMS total score at Month 6 ([4]; BX20, OC): 1.08
proportion of patients normal with respect to SAS status ([4]; BX20): 89%
AIMS score, mean (SD) ([4]; BX30, Baseline, LOCF): 1.35 (2.79)
BAS score, mean (SD) ([4]; BX30, Baseline, LOCF): 0.45 (1.11)
SAS score, mean (SD) ([4]; BX30, Baseline, LOCF): 2.33 (3.53)
AIMS score, mean (SD) ([4]; BX30, Baseline, OC): 1.35 (2.79)
SAS score, mean (SD) ([4]; BX30, Baseline, OC): 2.33 (3.53)
AIMS score, mean (SD) ([4]; BX30, Month 6, LOCF): 2.77 (6.09)
SAS score, mean (SD) ([4]; BX30, Month 6, LOCF): 2.09 (3.64)
AIMS score, mean (SD) ([4]; BX30, Month 6, OC): 0.86 (3.18)
BAS score, mean (SD) ([4]; BX30, Month 6, OC): 0.16 (0.65)
SAS score, mean (SD) ([4]; BX30, Month 6, OC): 1.16 (2.78)
AIMS score, mean (SD) ([4]; BX30, Week 6, LOCF): 2.83 (6.09)
BAS score, mean (SD) ([4]; BX30, Week 6, LOCF): 0.66 (1.55)
SAS score, mean (SD) ([4]; BX30, Week 6, LOCF): 2.35 (3.87)
AIMS score, mean (SD) ([4]; BX30, Week 6, OC): 1.80 (4.25)
SAS score, mean (SD) ([4]; BX30, Week 6, OC): 2.06 (3.41)
AIMS total score at Month 6 ([4]; BX30, OC): 0.86
proportion of patients normal with respect to SAS status ([4]; BX30): 78%

From patent US20090068290A1, “BIFEPRUNOX DOSES FOR TREATING SCHIZOPHRENIA” (priority 2006, published 2009)
